According to BindingDB's records for doi:10.1128/AAC.00311-07 (University of California San Francisco, 2007):

These compounds were tested against T1, Lanosterol 14-alpha demethylase (Mycobacterium tuberculosis (strain CDC 1551 / Oshkosh), UniProt P9WPP8) (assay: Ligand Binding Assay). Details: pH 7.5; 37 °C.
T1 sequence (P9WPP8 whole entry): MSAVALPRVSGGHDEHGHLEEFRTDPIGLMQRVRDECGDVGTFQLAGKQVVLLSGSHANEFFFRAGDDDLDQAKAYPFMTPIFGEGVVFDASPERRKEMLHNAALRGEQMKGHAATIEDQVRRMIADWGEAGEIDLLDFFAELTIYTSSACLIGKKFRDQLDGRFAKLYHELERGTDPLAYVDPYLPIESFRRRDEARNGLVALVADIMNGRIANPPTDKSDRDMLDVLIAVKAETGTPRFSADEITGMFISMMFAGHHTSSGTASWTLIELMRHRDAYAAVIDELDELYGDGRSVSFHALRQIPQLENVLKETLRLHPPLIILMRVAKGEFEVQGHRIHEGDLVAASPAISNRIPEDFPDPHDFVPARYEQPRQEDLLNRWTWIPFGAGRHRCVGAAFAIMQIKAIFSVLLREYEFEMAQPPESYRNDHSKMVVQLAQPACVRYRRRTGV
Text: The assay was developed based on the optical spectral property of P450 enzyme to elicit both type I and type II spectral changes (350 nm through 450 nm). The concentration dependence of the changes allows the binding affinities of the ligands to be estimated. Titration data were linearized by plotting S0/deltaA against S0, where S0 is the total concentration of a ligand and deltaA is the change in absorption. The equilibrium dissociation constant (Kd) was extrapolated from the intercept of the linear plot with the S0 axis.

Compound	Kd [µM]
CCC1(C)CC(CCN)(c2ccc(OC)cc2)CCO1 (stereo not drawn) [2-[2-ethyl-4-(4-methoxyphenyl)-2-methyloxan-4-yl]ethan-1-amine]	7.5
O=C(Nc1ccncc1)C1(c2ccccc2)CCOCC1 [4-phenyl-N-pyridin-4-yltetrahydro-2H-pyran-4-carboxamide]	7.5
Nc1ccc(NS(=O)(=O)c2ccc(Cl)cc2)cc1 [N-(4-aminophenyl)-4-chlorobenzene-1-sulfonamide]	7.5
COc1ccccc1C(CCN)c1ccco1 (stereo not drawn) [3-furan-2-yl-3-(2-methoxyphenyl)propan-1-amine]	7.5
NCC(=O)N1c2ccccc2SC2C=CC=CC21 (stereo not drawn) [1-(10,10a-dihydro-4aH-phenothiazin-10-yl)-2-aminoethan-1-one]	7.5
O=C1c2cc(O)ccc2-c2ccc(O)cc21 [2,7-Dihydroxy-9-fluorenone]	37.5
c1ccc(-c2c[nH]cn2)cc1	1300
C[C@]12CCC3c4ccc(O)cc4CCC3C1C[C@@H](O)[C@@H]2O (stereo partly drawn) [Epiestriol]	100
